# From patent US20250108213A1, “COMPOSITIONS AND METHODS FOR ENHANCING THE EFFECT OF PLATINUM-BASED SYSTEMIC THERAPY” (NOVOCURE GMBH, priority 2023, published 2025)
# “Also recorded” adds a separate entry of the source. Read-outs that look alike come from different tables or passages of the source.
# What was measured:
# OVCAR-3 cells [1] = test: Apoptosis, Annexin V/7-AAD staining, flow cytometer; format: cell-based, human; conditions: TTFields applied with drug
# Experimental: (§1) Apoptosis: Treated cells were double-stained with FITC-conjugated annexin V (AnnV) and 7-aminoactinomycin D (7AAD), and data acquisition was performed with a flow cytometer.
# (§2) Treated cells were stained with FITC-conjugated Annexin V (AnnV) and 7-Aminoactinomycin D (7-AAD) using a commercial kit (BioLegend, San Diego, CA, USA), according to the manufacturer's instruction. Data acquisition and analysis were done on the Cytek Northern Lights flow cytometer
# [2] = system: γH2AX foci in cell nuclei; test: DNA damage examination by fluorescence microscopy; format: cell-based, human
# Experimental: For DNA damage and cell cycle examination, the following drug concentrations were selected: For A2780—6 μM carboplatin, 1 μM olaparib, and 0.5 μM niraparib; For OVCAR-3-16 μM carboplatin, 0.5 μM olaparib, and 0.8 μM niraparib; For A2780cis—36 μM carboplatin, 10 μM olaparib, and 1.5 μM niraparib. Treated cells were fixed with 4% paraformaldehyde for 10 min, permeabilized for 20 min with 0.5% Triton X-100 in PBS, and blocked with donkey serum (PBS with 0.3% Triton X-100 and donkey serum 1:100). Cells were incubated at 4° C. overnight with anti-γH2AX antibody (Cell Signaling, Danvers, MA, USA; #9718, 1:400), followed by incubation at room temperature for 1 hr with Alexa Flour 488-conjugated secondary antibody (Jackson Immunoresearch, Cambridge, UK; #711-545-152, 1:500) and […] 4′,6-diamidino-2-phenylindole (DAPI; Sigma Aldrich, Rehovot, Israel). LSM 700 laser scanning confocal system (Zeiss, Gottingen, Germany) was utilized to obtain images, and the mean number of foci per nucleus was determined using the FIJI software with the BioVoxxel plugin.
# A2780cis cells [3] = test: Apoptosis, Annexin V/7-AAD staining, flow cytometer; format: cell-based, human; conditions: TTFields applied with drug
# Experimental: (§3) Apoptosis was also examined. Treated cells were double-stained with FITC-conjugated annexin V (AnnV) and 7-aminoactinomycin D (7AAD), and data acquisition was performed with a flow cytometer.
# Treated cells were double-stained with FITC-conjugated annexin V (AnnV) and 7-aminoactinomycin D (7AAD), and data acquisition was performed with a flow cytometer.
# as §2
# A2780cis cells [4] = test: Cell count and overall effect (cell count x colony formation) after 72 h drug with or without TTFields; format: cell-based, human; conditions: for effect of TTFields on the drug-induced overall effect (cell count x colony formation) / effect of TTFields on the drug-induced effect, cell count: TTFields plus drug vs drug alone; for effect of TTFields on the drug-induced effect, cell count: p<0.0001; for sensitivity to drug (cell count dose response) / effect of TTFields on sensitivity to / effect of the drug / type of TTFields-drug interaction (measured vs calculated additive curve): 72 h; for sensitivity to drug (cell count dose response): compared among A2780, OVCAR-3, A2780cis; for effect of TTFields on sensitivity to / effect of the drug: platinum-resistant cell line; for effect of TTFields on sensitivity to / effect of the drug / type of TTFields-drug interaction (measured vs calculated additive curve): TTFields 200 kHz, 1 V/cm RMS; for type of TTFields-drug interaction (measured vs calculated additive curve): platinum-resistant cells
# Experimental: TTFields were applied to the cells for 72 h in the absence or presence of various concentrations of carboplatin. Synergy was defined when the observed value was lower than that predicted for an additive effect (presented by the red dotted line-calculated by multiplying the observed effects for TTFields alone with that for cisplatin alone).
# The Cytotoxic effect was also determined. Treated cells were counted using a flow cytometer, and cytotoxic effect was calculated relative to control cells.
# Treated cells were harvested, re-plated, and grown for an additional 7-14 days. Colonies were stained (0.5% crystal violet solution), counted, and clonogenic effect was calculated relative to control. The overall effect was calculated by multiplying the cytotoxic and clonogenic effects.
# TTFields application was studied. Ovarian carcinoma cells A2780cis (cisplatin resistant cells) were treated for 72 h with TTFields at an intensity of 1 V/cm RMS and a frequency of 200 kHz using the inovitro system (See FIG. 11).
# TTFields were applied to the cells for 72 h in the absence or presence of various concentrations of PARPi Olaparib and Niraparib. Synergy was defined when the observed value was lower than that predicted for an additive effect (presented by the red dotted line-calculated by multiplying the observed effects for TTFields alone with that for cisplatin alone).
# The cytotoxic effect was studied. Treated cells were counted using a flow cytometer, and cytotoxic effect was calculated relative to control cells.
# Treated cells were harvested, re-plated, and grown for an additional 7-14 days. Colonies were stained (0.5% crystal violet solution), counted, and clonogenic effect was calculated relative to control. Overall effect was calculated by multiplying the cytotoxic and clonogenic effects.
# (§4) Cells were seeded on coverslip (22 mm diameter; 20×10^3 cells/coverslip for A2780 and A2780cis; 40×10^3 cells/coverslip for OVCAR-3). After overnight incubation, the coverslips were transferred into in vitro dishes containing 2 ml of media. TTFields at a frequency of 200 kHz (and intensity of 1 V/cm RMS) were applied to the cells for 72 hr using the INOVITRO system (Novocure, Haifa, Israel).
# (§5) For efficacy outcomes (cell count, overall effect, and apoptosis), various concentrations of carboplatin (MCE MedChemExpress, HY-17393), olaparib (Cayman Chemical, 10621), or niraparib (Cayman Chemical, 20842) were applied, with or without TTFields.
# (§6) Cell count was examined following treatment using Cytek Northern Lights flow cytometer (Cytek Biosciences, USA).
# (§7) Treated cells were harvested, re-plated in 6-well plates (500 cells/well for A2780 and A2780cis; 1000 for cells/well OVCAR-3), and grown for 7 (A2780 and A2780cis) or 21 (OVCAR-3) days. Colonies were stained with 0.5% crystal violet, quantified with ImageJ, and expressed as percentages relative to control. Overall effect was calculated by multiplying colony formation with the corresponding cell count.
# (§8) The surviving fraction predicted for an additive effect between TTFields and drug was calculated per the various drug concentrations by multiplying the actual measured surviving fractions for the individual treatments one by the other (SFcalculated additive=SFTTFields×SFdrug; SF are expressed as probability). Based on the calculated values, a trendline was determined. Additivity, synergy, or antagonism was defined when the calculated additive trendline overlapped, was above, or was below the actual measured line for TTFields+drug, respectively.
# For quantifying the magnitude of TTFields-drug interaction, interaction index (Ii) values were calculated by the Bliss independence method using mortality values (Mx=1−SFx). Per the various drug concentrations, mortality predicted for an additive effect between TTFields and drug (Mcalculated additive=MTTFields+Mdrug−MTTFields×Mdrug) was divided by the actual measured mortality for TTFields+drug.
# A2780 cells [5] = test: Apoptosis, Annexin V/7-AAD staining, flow cytometer; format: cell-based, human; conditions: TTFields applied with drug
# Experimental: as §1, §3, §2
# A2780 cells [6] = conditions: for type of TTFields-drug interaction (measured vs calculated additive curve): HRP cells; for effect of TTFields on the drug-induced overall effect (cell count x colony formation) / effect of TTFields on the drug-induced effect, cell count: TTFields plus drug vs drug alone; for effect of TTFields on the drug-induced effect, cell count: p<0.0001
# Experimental: as §4, §5, §6, §7, §8
# (§9) For quantifying the magnitude of TTFields-drug interaction, interaction index (Ii) values were calculated by the Bliss independence method using mortality values (Mx=1−SFx). Per the various drug concentrations, mortality predicted for an additive effect between TTFields and drug (Mcalculated additive=MTTFields+Mdrug−MTTFields×Mdrug) was divided by the actual measured mortality for TTFields+drug. Additivity was determined when the 95% confidence interval (CI) overlapped 1, synergy when 95% CI<1, and antagonism when 95% CI>1. Lower Ii values were considered indicative of higher synergy levels.
# OVCAR-3 cells [7] = conditions: for effect of TTFields on the drug-induced overall effect (cell count x colony formation) / effect of TTFields on the drug-induced effect, cell count: TTFields plus drug vs drug alone; for effect of TTFields on the drug-induced effect, cell count: p<0.0001; for sensitivity to drug (cell count dose response): drug alone, compared among A2780, OVCAR-3, A2780cis
# Experimental: as §4, §5, §6, §7, §8, §9
# G2/M cell cycle arrest = test: Cell cycle analysis (7-AAD, flow cytometer); format: cell-based, human
# Experimental: For DNA damage and cell cycle examination, the following drug concentrations were selected: For A2780—6 μM carboplatin, 1 μM olaparib, and 0.5 μM niraparib; For OVCAR-3-16 μM carboplatin, 0.5 μM olaparib, and 0.8 μM niraparib; For A2780cis—36 μM carboplatin, 10 μM olaparib, and 1.5 μM niraparib. Treated cells were fixed with 70% ice-cold ethanol for 30 min, pelleted, washed, and stained for 30 min at 37° C. in phosphate buffered saline (PBS) containing 1% FBS 5 μg/ml 7-AAD (BioLegend), 200 μg/ml RNase, 1 mM EDTA and 0.1% Triton X-100. Data acquisition (at 665/30 nm) and analysis were done on the Cytek Northern Lights flow cytometer and the FlowJo 10.8.1 software (BD Biosciences), respectively.
# [8] = treatment alone, all cell lines (A2780, OVCAR-3, A2780cis), relative to control
# [9] = Bliss independence, TTFields plus drug
# [10] = TTFields 200 kHz, 1 V/cm RMS, 72 h
Compound,effect of TTFields on the apoptotic effect / apoptotic cell fraction (OVCAR-3 cells [1]),"levels of γH2AX foci, monotherapy [2, 8]",effect of TTFields on the apoptotic effect / apoptotic cell fraction (A2780cis cells [3]),effect of TTFields on the drug-induced overall effect (cell count x colony formation) (A2780cis cells [4]),"effect of TTFields on the drug-induced effect, cell count (A2780cis cells [4])",sensitivity to drug (cell count dose response) (A2780cis cells [4]; drug alone),effect of TTFields on sensitivity to / effect of the drug (A2780cis cells [4]),type of TTFields-drug interaction (measured vs calculated additive curve) (A2780cis cells [4]),effect of TTFields on the apoptotic effect / apoptotic cell fraction (A2780 cells [5]),type of TTFields-drug interaction (measured vs calculated additive curve) (A2780 cells [6]; [10]),"type of TTFields-drug interaction, overall effect (cell count and clonogenic effect) (A2780 cells [6]; [10])",effect of TTFields on the drug-induced overall effect (cell count x colony formation) (A2780 cells [6]),"effect of TTFields on the drug-induced effect, cell count (A2780 cells [6])",effect of TTFields on the drug-induced overall effect (cell count x colony formation) (OVCAR-3 cells [7]),"effect of TTFields on the drug-induced effect, cell count (OVCAR-3 cells [7])",sensitivity to drug (cell count dose response) (OVCAR-3 cells [7]; 72 h),"cell cycle arrest, drug alone (G2/M cell cycle arrest)",also measured
N.N.O=C([O-])C1(C(=O)[O-])CCC1.[Pt+2] [carboplatin],enhanced; also recorded: increases,more pronounced effect,increases,significantly elevated,significantly amplified,lower response; also recorded: highest resistance,increased the sensitivity,synergistic; also recorded: synergistically; also recorded: tendency to synergy,enhanced; also recorded: increases,tendency to synergism; also recorded: additive; also recorded: tendency to synergy,Signs of synergy,significantly elevated,significantly amplified,significantly elevated,significantly amplified,highest sensitivity,induced G2/M arrest,"levels of γH2AX foci, monotherapy ([2]; drug alone, OVCAR-3 cells): especially dramatic; level of TTFields-drug synergy (A2780cis cells [4]; A2780cis relative to A2780 cells, by Ii): higher levels; interaction index (Ii), 95% confidence interval (A2780cis cells [4]; [9]): smaller than 1; decreased sensitivity of A2780cis cells compared with wild type A2780 cells (A2780cis cells [4]; drug alone, titration): 5 fold; interaction index (Ii), 95% confidence interval (A2780 cells [6]; [9]): smaller than 1; type of TTFields-drug interaction, cytotoxic effect (cell count) (A2780 cells [6]; TTFields 200 kHz, 1 V/cm RMS, 72 h, BRCA wt): Signs of synergy; interaction index (Ii), 95% confidence interval (OVCAR-3 cells [7]; [9]): > 1"
NC(=O)c1cccc2cn(-c3ccc([C@@H]4CCCNC4)cc3)nc12 [niraparib],enhanced; also recorded: elevation,mild elevation,elevation,significantly augmented,significantly augmented,highest resistance,increased the sensitivity,tendency to synergy,enhanced; also recorded: elevation,high synergy,synergistically,significantly augmented,significantly augmented,significantly augmented,significantly augmented,highest sensitivity,induced G2/M arrest,"type of TTFields-drug interaction, cytotoxic effect (cell count) (A2780 cells [6]): synergistically; level of TTFields-drug synergy (A2780 cells [6]; A2780 relative to A2780cis cells, by Ii): higher; type of TTFields-drug interaction, cytotoxic effect (cell count) (OVCAR-3 cells [7]): additively; type of TTFields-drug interaction (measured vs calculated additive curve) (OVCAR-3 cells [7]; HRD cells, TTFields 200 kHz, 1 V/cm RMS, 72 h): additively; type of TTFields-drug interaction, overall effect (cell count and clonogenic effect) (OVCAR-3 cells [7]; [10]): additive"
